# Laboratory results: patent publication US7833795B2, “Assessment of cardiovascular risk using isoprostane biomarkers and COX-2 selective inhibitors” (The Trustees of the University of Pennsylvania, priority 2004, dated 2010)
# Read-outs that look alike come from different tables or passages of the source.
# What was measured:
# [1] = Case study of short term valdecoxib use; assay type: in vivo, human; settings: valdecoxib 20 mg b.i.d. Person on oral contraceptive
# Method: A ventilation-perfusion scan (VQ scan) was performed according to typical hospital procedure. Inhalation of 20.1 millicurie (mCi) of Xenon-133 gas was used for the ventilation scan. Intravenous injection of 4.1 mCi of Tc-99m-labelled MAA was used for the perfusion scan.
# A person presented with pulmonary embolism. They had been taking, without complication, Ortho-Tricyclen® (0.180, 0.215, and 0.250 mg norgestimate cycles; 35 microgram (μg) ethinyl estradiol) for two years and Ortho Tri-cyclen® LO (same norgestimate; 25 μg ethinyl estradiol) for 14 months. A non-smoker, they lacked a relevant family history and was vigorously athletic.
# One month prior to presentation, they developed neck pain. Disc protrusion at C5-C6 was detected by magnetic resonance imaging (MRI). The patient was prescribed valdecoxib 20 mg b.i.d. for two weeks. Their neck pain resolved. However, towards the end of this two-week treatment period, they developed left-sided pleuritic chest and shoulder pain after a 6 hour car ride. They were commenced on cyclobenzaprine 10 mg b.i.d. and continued on valdecoxib. Their left-sided pain abated gradually. However, 18 days later, they developed right-sided chest and shoulder pain. […]
# [2] = small, short-term studies of cardiopulmonary bypass grafting; cited from earlier work
# eicosanoid biosynthesis = assay: Urinary eicosanoid analyses in mice; assay type: in vivo, mouse
# Method: Mice: In all cases, transgenic mice deficient in the indicated gene were compared with appropriate strain-, age-, and sex-matched control animals. The investigator was unaware of the genotype throughout the experiment. All procedures were approved and animal husbandry was overseen by the Institutional Animal Care and Usage Committee of the University of Pennsylvania.
# Eicosanoid analyses: Urinary 2,3-dinor TxB2 and 2,3-dinor 6-keto PGF1α were measured in twenty four hour urines collected in metabolic cages. After extraction and purification by thin layer chromatography, they were analyzed by gas chromatography/mass spectrometry, as previously described (Egan et al., 2005, Circulation 111:334). Urinary PGE-M was measured by LC/MS/MS as follows: First, 10 ng of hexadeuterated PGE-M (9,15-dioxo-11α-hydroxy-2,3,4,5-tetranor-prostan-1,20-dioic-17,17,18,18,19,19-d6 acid; Cayman Chemical Co., Ann Arbor, Mich.) was added to 0.1 ml of mouse urine. Next, 50 μL of methoxyamine HCl, 1 g/L, was added and the sample was mixed and allowed to stand at room temperature for 15 minutes. The sample was then diluted to 1.0 ml with water and extracted on a Strata™-X solid phase extraction (SPE) cartridge (Phenomenex Inc., Torrance, Calif.). The SPE was eluted with 1.0 mL of 5% acetonitrile in ethyl acetate, dried, dissolved in 200 μL 10% acetonitrile in water, and injected for LC/MS/MS analysis. Transitions monitored were m/z 385→336 for the endogenous PGE-M and 391→342 for the internal standard.
# mice [3] = settings: mouse, in vivo
# Method: Briefly, mice (12→16 weeks) were anesthetized with sodium pentobarbital (80 mg/kg, intraperitoneally). Following a midline cervical incision, the left common carotid artery was isolated and a Doppler flow probe (Model 0.5 VB, Transonic Systems Co., Ithaca, N.Y.) was applied. The probe was connected to a flowmeter (Transonic Model T105) and interpreted with Powerlab® (AD Instruments, Colorado Springs, Colo.), a computerized data acquisition program. Rose Bengal (Fisher Scientific, Fair Lawn, N.J.) was diluted to phosphate-buffered saline and then injected into the jugular vein in a volume of 0.12 ml at a concentration of 50 mg/kg. Immediately prior to injection, a 1.5-mW green light laser (540 nm) (Melles Griot, Carlsbad, Calif.) was applied to the desired site of injury from a distance of 5 cm carotid artery; blood flow was monitored for 120 minutes or until stable occlusion occurred, after which the mice still showing blood flow were assigned a value of 120 minutes. Stable occlusion was defined as a blood flow of 0 ml/min for 3 minutes.
# Male C57BL/6J mice [4] = settings: one week after LC ligation, severe flow reduction
# From the text: (§1) Briefly, the distal left common carotid artery (LC) artery and its bifurcation into the external and internal carotid were exposed using blunt dissection. 9-0 nylon sutures (USSC Sutures, Norwalk, Conn.) were used to ligate the EC artery, incisions were closed (7-0 polypropylene) and mice were left to recover. Severe reduction in flow was achieved by ligating the LC artery just proximal to the external/internal carotid artery bifurcation. Five μm cross sections were used from parallel regions of RC and LC that were isolated in 5 millimeter (mm) blocks proximal to the ligation, until reaching a parallel point at the RC artery branchpoint with the right subclavian artery. […] Mice that developed thrombosis were excluded from the analysis. […] Urine was collected from individual mice using metabolic cages at four weeks of age, and again after a four week period of treatment, subsequent to either moderate or severe flow reduction. Urine samples were frozen at −20° for analysis.
# Male C57BL/6J mice [5] = system: Male C57BL/6J mice
# Method: (§2) Animals: All animal studies were performed according to protocols approved by the Institutional Committee for Use and Care of Laboratory Animals. Male C57BL/6J mice, aged four to six weeks were used for the flow reduction models. The parental background strain of the male, four to six week old donor mice in the transplant studies was also C57BL/6J (H2b). The background of the recipient mice was C3H(H2k) (Taconic Farms Inc, Germantown, N.Y.).
# Urine was collected over a 24 hour period in metabolic cages (Nalgene Labware, Deepwater, N.J.) with vehicle or nimesulide allowed ad libitum. Urinary levels of prostanoid metabolites were measured by stable isotope dilution methods as previously described. […] A urine aliquot (0.1 ml) was used for measurement of creatinine by an automated colorimetric assay (Sigma-Aldrich Co., St Louis, Mo.).
# as §1
# Male C57BL/6J mice [6] = settings: nimesulide
# Method: as §2, §1
# mice [7] = assay: Tail cuff blood pressure measurement; assay type: in vivo, mouse; settings: celecoxib treatment, regular chow diet
# Method: (i) Tail Cuff measurement: Resting systolic blood was measured in conscious mice (3-4 months old) using a computerized noninvasive tail-cuff system (Visitech Systems, Apex, N.C.). […] Mice were adapted to the system for 14 days; measurements of sessions 25 minutes in length were done once each day between 15:00 and 18:00. After that, blood pressure was recorded daily for 3 consecutive days in the same way. Data were collected and analyzed using updated BP 2000 software (http://www(dot)visitechsystems(dot)com/).
# IP [8] = target: T1, IP (Mus musculus, UniProt P43252); assay: Direct measurement of blood pressure after cicaprost; assay type: in vivo; settings: cicaprost 1 μg/kg iv
# T1 construct: from tissue; host or cells: live anesthetized mice (WT, IP+/- and IP-/- littermates, C57BL/6 background); vasculature
# From the text: (§3) IPKO and mPGES-1 KO mice: IPKO mice were backcrossed into a C57BL/6 genetic background (Cheng et al., 2002, Science 296: 539). IP^−/−, IP^+/−, and WT littermates were identified in litters generated by the intercross of IP^+/− animals by polymerase chain reaction analysis (PCR) of genomic DNA isolated from tail biopsy samples. Southern blot analysis confirmed the IP gene copy number. mPGES-1 KO mice were kindly provided by Pfizer Inc (New York, N.Y.). They were generated and maintained on the DBA/1 lacJ genetic background (Trebino et al., 2003, Proc. Natl. Acad. Sci. U.S.A. 100: 9044). Heterozygous animals were intercrossed, and the litters were screened by PCR analysis to identify both mPGES-1 KO and wild-type controls. Biochemical and functional analyses in each case were performed on mutant mice and WT littermate controls.
# (§4) (iii) Direct measurement of blood pressure: Mice were anesthetized (ketamine 100 mg/kg, acepromazine 5 mg/kg) and placed on a temperature-controlled panel. The right internal jugular vein and left carotid artery were cannulated with PE-10 tubing. The arterial catheter was connected to a Capto SP844 pressure transducer (Capto, Horten, Norway), and blood pressure (BP) was monitored continuously with a Powerlab/8SP system (AD Instruments Inc.), as previously described (Hui et al., 2004, Circulation 110:3360; Rocca et al., 2000, Nat. Med. 6:219). Blood pressure and heart rate were continuously monitored for 20-40 minutes until stable values were obtained. After the equilibration period and the baseline BP was recorded, mice were injected via the right internal jugular vein with cicaprost (1 ug/kg in 4 mL/kg saline) as a bolus, and the same volume of saline was injected before cicaprost administration to exclude volume-mediated BP changes. The BP was continuously recorded until it returned to pretreatment baseline.
# IP [9] = assay: as above; assay type: in vivo, mouse; settings: cicaprost 1 μg/kg iv, IP−/−
# From the text: as §3, §4
# heme oxygenase 1 (HO 1) = assay: Heme oxygenase 1 Western blotting in MASMC; assay type: cell-based, mouse; settings: 100 nM cicaprost, 8 hours, IP-dependent
# Method: (§5) Mouse aortic smooth muscle cells (MASMCs): Primary aortic smooth muscle cells were prepared. […] Cells were cultured in Dulbecco's Modified Eagles medium (DMEM)/Ham's F12 (50/50) (Gibco BRL, Grand Island, N.Y.; with 15 mM HEPES and 2 mM glutamine) supplemented with 20% fetal bovine serum. Cells were routinely passaged using 0.05% trypsin/0.53 mM EDTA, seeded onto six well plates and used at 80-90% confluence, between passages five to nine.
# Heme oxygenase 1 (HO 1) Western Blotting: A polyclonal rabbit anti-heme oxygenase 1 (HO 1, ˜32 kDa) was purchased from Stressgen Biotechnologies, Victoria, BC, Canada. MASMCs were treated with 100 nM cicaprost for 8 hours in RPMI vehicle at 37° C. Control cells were treated with vehicle for the same time period. […] Protein isolated from aortae of high fat fed mice was quantitated by the BioRad DC assay for Western Blotting.
# IP [10] = assay: Whole blood platelet aggregation assay; settings: 10 nM cicaprost, collagen 2 μg/ml ex vivo
# [11] = system: mouse aortic smooth muscle cells (MASMC); assay: H2O2-induced 8,12-iso-iPF2α-VI generation in MASMC; assay type: cell-based
# Method: as §5
# Cicaprost (100 nM, Schering A G, Berlin, Germany by agreement) was added to MASMC medium just prior to addition of H2O2.
# Short term treatment with E2: Cells were washed twice rinsing with RPMI serum free medium and then pre-incubated in 1 ml RPMI serum free medium for 1 hour. […] .
# The 8,12-iso-iPF2α-VI was analyzed in 1 ml conditioned medium, adjusted to pH 3, using the same method described for urine samples.
# [12] = nimesulide, severe flow reduction
# T1 sequence (P43252 1-412 limits assumed): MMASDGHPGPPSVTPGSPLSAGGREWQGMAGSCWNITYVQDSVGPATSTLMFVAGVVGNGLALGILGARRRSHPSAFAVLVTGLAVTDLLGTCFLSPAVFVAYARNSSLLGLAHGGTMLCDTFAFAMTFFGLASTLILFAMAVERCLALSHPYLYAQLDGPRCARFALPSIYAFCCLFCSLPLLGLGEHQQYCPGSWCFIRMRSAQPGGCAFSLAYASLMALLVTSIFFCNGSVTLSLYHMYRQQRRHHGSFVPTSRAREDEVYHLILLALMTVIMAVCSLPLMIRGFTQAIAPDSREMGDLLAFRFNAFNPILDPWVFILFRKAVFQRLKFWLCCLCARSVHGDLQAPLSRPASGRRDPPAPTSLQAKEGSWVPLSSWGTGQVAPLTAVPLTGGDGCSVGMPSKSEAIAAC
smiles,measurement,setting,value
Cc1onc(-c2ccccc2)c1-c1ccc(S(N)(=O)=O)cc1 [valdecoxib],adverse event diagnosed in the patient,[1],left iliac vein thrombosis and bilateral pulmonary emboli
same,relative risk of heart attack and stroke,[2],three-fold increase
"CC1(C)OC(=O)C(c2cccc(F)c2)=C1c1ccc(S(C)(=O)=O)cc1 [DFU, 5,5-dimethyl-3-(3-fluorophenyl)-4-(4-methylsulphonyl)phenyl-2(5H)-furanone]","mean depression of urinary 2,3-dinor 6-keto PGF1α from pretreatment values","eicosanoid biosynthesis; DFU, WT mice",71.2%
same,mean depression of urinary PGE-M from pretreatment values,"eicosanoid biosynthesis; DFU, WT mice",52.3%
same,"urinary 2,3-dinor TxB2 vs pretreatment values","eicosanoid biosynthesis; DFU, WT mice",did not depress
same,"urinary 2,3-dinor TxB2","eicosanoid biosynthesis; DFU, WT mice, second value of the printed pair (4.63±1.3 vs.), order not stated",6.0±1.1 ng/mg creatinine
same,"urinary 2,3-dinor 6-keto PGF1α","eicosanoid biosynthesis; PGHS-2 inhibition, mice",suppressed substantially
same,"urinary 2,3-dinor TxB2","eicosanoid biosynthesis; treatment with PGHS-2 selective inhibitor, mice",unaltered significantly
same,"mean impact on time to occlusion, % of WT value",mice [3],56.2%
CS(=O)(=O)Nc1ccc([N+](=O)[O-])cc1Oc1ccccc1 [nimesulide],"blood flow in the LC, nimesulide vs vehicle",Male C57BL/6J mice [4],marked reduction
same,urinary PGI-M,"Male C57BL/6J mice [5]; nimesulide 40 mg/L in drinking water, chronic, control mice",depressed urinary PGI-M
same,"urinary 2,3-dinor TxB2 excretion","Male C57BL/6J mice [5]; nimesulide, control conditions",failed to suppress
same,excretion of an isoprostane biomarker of lipid peroxidation,"Male C57BL/6J mice [5]; nimesulide, control mice",did not alter excretion
same,urinary PGI-M,"Male C57BL/6J mice [5]; nimesulide, moderate and severe reduction in flow",depressed PGI-M to a similar degree
same,"oxidant stress, urinary 8,12-iso-iPF2α-VI",Male C57BL/6J mice [5]; [12],markedly augmented
same,"platelet activation, urinary 2,3-dinor TxB2 excretion",Male C57BL/6J mice [5]; [12],markedly augmented
same,lumen diameter and external elastic lamina diameter of RCs or LCs,Male C57BL/6J mice [6]; control mice,did not itself affect
same,flow dependent reduction in vessel size (luminal and EEL diameter),Male C57BL/6J mice [6]; moderate or severe flow reduction,failed to alter
same,"neointimal area, intimal hyperplastic response in LC",Male C57BL/6J mice [6]; severe flow reduction,markedly augmented the intimal hyperplastic response
Cc1ccc(-c2cc(C(F)(F)F)nn2-c2ccc(S(N)(=O)=O)cc2)cc1 [celecoxib],blood pressure compared to WT controls,mice [7],elevated
CCC#CC[C@H](C)[C@H](O)C#C[C@@H]1[C@H]2C/C(=C/COCC(=O)O)C[C@H]2C[C@H]1O [cicaprost],duration of the depressor response,IP [8]; IP+/−,5.3 ± 1.1 min
same,maximal decline in mean arterial pressure from pretreatment baseline,IP [8]; IP+/−,24%
same,maximal decline in mean arterial pressure from pretreatment baseline,IP [8]; WT,36±3.5%
same,duration of the depressor response,IP [8]; WTs,10.8 ± 2.5 min
same,"depressor response, MAP",IP [9],no change in MAP
same,maximal decline in mean arterial pressure from pretreatment baseline,IP [9],0%
same,HO 1 protein expression,heme oxygenase 1 (HO 1),increased expression
same,"platelet aggregation readout, second value printed for IP+/− mice",IP [10],100%
same,"inhibition of platelet aggregation, % of the maximal inhibition observed in WTs",IP [10]; IP+/− mice,86.7%
same,"response of MASMCs to H2O2, iP generation","[11]; cicaprost 100 nM, H2O2 100 μM 30 min",limits the response
same,iP generation from unstimulated cells,"[11]; cicaprost, MASMC without H2O2",does not significantly reduce
